Reference: patent publication US20120015925A1, “NOVEL BENZOTHIAZEPINE AND BENZOTHIEPINE COMPOUNDS” (ASAHI KASEI PHARMA CORPORATION, priority 2004, published 2012)
pIC50: −log10 of the molar value.

Tests used:
[1] = tested on: rats dosed cholic acid; experiment: Lowering effect on bile acid concentrations in portal vein blood in rats dosed cholic acid; assay type: in vivo, rat
Procedure: In the present Test Example, a lowering effect on bile acid concentrations in portal vein blood in rats dosed cholic acid was evaluated according to the method described in Jpn. Pharmacol. Ther., Vol. 24 Supplement, 1996, 103(S-577)-110(S-584).
That is, SD (IGS) strain male rats at 7 to 9 weeks of age were fasted one day before the administration date. […] The blood was collected from the portal vein 2 hours after the forced oral administration, and a total bile acid value in serum was measured to examine the effect of the test compound (n=6). As a control, another group (n=6) merely received cholic acid (200 mg/kg), to which the same procedure was applied. The cholic acid value was measured using the commercially available kit (brand name: Total Bile Acid-Test Wako, supplied form Wako Pure Chemical Industries). Defining the value in the control group to which no test compound had been administered as being 100%, a reduction rate (%) of the bile acid value when a certain amount of the test compound had been administered was calculated.

[2] = biological target: T1, human IBAT (Homo sapiens, UniProt Q12908); experiment: In vitro assay using Cos 7 cells, transiently expressed human IBAT; assay type: cell-based; settings: 37° C., 60 minutes
T1 sequence (Q12908 1-348): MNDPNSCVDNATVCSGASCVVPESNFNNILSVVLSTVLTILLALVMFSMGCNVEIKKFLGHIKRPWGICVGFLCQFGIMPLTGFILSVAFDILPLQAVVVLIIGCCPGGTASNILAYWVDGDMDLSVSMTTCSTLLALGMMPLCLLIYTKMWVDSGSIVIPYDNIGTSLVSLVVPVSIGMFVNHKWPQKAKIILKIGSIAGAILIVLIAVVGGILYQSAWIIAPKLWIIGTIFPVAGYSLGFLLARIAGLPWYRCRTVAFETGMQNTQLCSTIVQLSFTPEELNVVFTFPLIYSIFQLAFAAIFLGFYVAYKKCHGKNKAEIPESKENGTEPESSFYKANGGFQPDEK
Outline: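 Cos 7 cells transfected with human or rat IBAT cDNA were assayed one day later in Hanks buffer with 25 mM glucose and 10 mM HEPES (pH 7.4) containing compound. [^3H]-taurocholate (8 μM final) uptake ran 60 min at 37° C. Cells were washed with 1 mM taurocholate, lysed in NaOH, and counted by liquid scintillation.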

[3] = biological target: T2, rat IBAT (Rattus norvegicus, UniProt Q62633); experiment: In vitro assay using Cos 7 cells, transiently expressed rat IBAT; assay type: cell-based; settings: 37° C., 60 minutes
T2 sequence (Q62633 1-348): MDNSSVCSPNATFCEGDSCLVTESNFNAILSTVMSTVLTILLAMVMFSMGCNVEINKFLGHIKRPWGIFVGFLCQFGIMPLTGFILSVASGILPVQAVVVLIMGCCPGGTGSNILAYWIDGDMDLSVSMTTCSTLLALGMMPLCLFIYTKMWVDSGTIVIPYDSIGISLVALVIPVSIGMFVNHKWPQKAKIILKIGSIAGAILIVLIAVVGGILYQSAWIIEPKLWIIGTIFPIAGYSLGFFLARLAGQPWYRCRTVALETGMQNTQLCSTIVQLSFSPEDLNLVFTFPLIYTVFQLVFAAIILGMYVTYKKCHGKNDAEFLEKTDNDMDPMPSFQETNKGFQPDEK
Procedure: In the present Test Example, an in vitro assay of compounds using Cos 7 cells as to inhibitory activity on transiently expressed human IBAT or rat IBAT transporter was performed according to the method described in Am. J. Physiol., 274, G157-169.
That is, […] cells/well of Cos 7 cells were seeded in a 24-well plate, and after one day, the cells were transfected with 0.3 μg/well of cDNA of human IBAT or rat IBAT using FuGENE6 (supplied from Roche). After culturing for one day after the transfection, the cells were washed once with the assay buffer, i.e., Hanks buffer containing 25 mM glucose and 10 mM HEPES (pH 7.4). The assay buffer was then replaced with the assay buffer containing the test compound. [^3H]-Taurocholate at a final concentration of 8 μM was added thereto and incubated at 37° C. for 60 minutes so that [^3H]-taurocholate was taken into Cos 7 cells by the action of human IBAT or rat IBAT. The cells were washed twice with the assay buffer containing 1 mM taurocholate, and subsequently lysed with 0.2 M NaOH to stop the reaction. The cell lysate was added to 4 mL of liquid scintillation cocktail, which was then thoroughly vortexed. Then the radioactivity was measured using the liquid scintillation counter.

[4] = tested on: Caco-2 cell; experiment: Gastrointestinal toxicity: cytotoxicity against Caco-2 cell (LDH activity); assay type: cell-based, human; settings: 2 hours, LDH activity in medium relative to cell lysis agent = 100%
Procedure: That is, 10,000 cells/well of Caco-2 cells (purchased from ATCC) were seeded in a 96-well plate [MEM-E medium, 10% FBS (Fetal Bovine Serum), 1% NEAA (Non Essential Amino Acid) solution, supplied from Gibco]. After culturing for 48 hours, the test compound diluted with the medium was added to each well. After 2 hours, 50 μL of the medium was collected, and an LDH activity in the medium was measured using an LDH activity measurement kit (CytoTox96 Non-Radioactive Cytotoxicity Assay, supplied from Promega). Defining the LDH activity of the Caco-2 cells treated with a cell lysis agent as being 100%, the relative activity was calculated as a index of the cytotoxicity.

[5] = tested on: rats with partial ligation of the bile duct dosed bile acid; experiment: Model for hepatic disorder associated with cholestasis (partial bile duct ligation model), Protocol A: AST, ALT, ALP; assay type: in vivo, rat; settings: Table 11, Protocol A, ursodeoxycholic acid 50 mg/kg oral twice per day for 3.5 days, N=8, mean±standard error
Source text: (§1) In the present Test Example, a model for the hepatic disorder caused by partial ligation of the bile duct was employed with reference to Kanno's method (Liver, 43, Suppl(1):A126, 2002).
(§2) That is, to the SD (IGS) strain male rats at 7 to 10 weeks of age, the partial ligation of the bile duct was given with opening the abdominal cavity under anesthesia with pentobarbital. Before the operation, the blood was collected from femoral vein, in order to obtain the value before the administration. From the day after the operation, 200 mg/kg of bile acid and the test compound were orally administered forcibly twice per day for 3.5 days (Protocol A). Without giving the partial ligation of the bile duct, 200 mg/kg of bile acid and the test compound were also orally administered forcibly twice per day for 3.5 days (Protocol B). In both cases, the test compound was dissolved or suspended in distilled water or an aqueous solution of 1% HCO 60 (Nippon Chemicals). To the control group, saline was administered. As comparative examples, 25 mg/kg of cholestyramine (supplied from Sigma) or 50 mg/kg of ursodeoxycholic acid (supplied from Mitsubishi Pharma) was administered. For considering the effect of the operation, sham operation (sham group) was performed in some cases. The blood was collected from the abdominal aorta 6 hours after the drug administration on the final day of the experiment. AST (GOT), ALT (GPT) and ALP in the blood were measured using measurement kits (GOT II-HA Test Wako, GPT II-HA Test Wako and Alkaline Phosphor HA Test Wako, all were supplied from Wako Pure Chemical Industries) and using an automatic analyzer (Nitech ANALAYZER SUPER Z818).

[6] = tested on: rats dosed bile acid; experiment: Model for hepatic disorder associated with cholestasis, Protocol B (bile acid without partial ligation): AST, ALT, ALP; assay type: in vivo, rat; settings: Table 13, Protocol B, ursodeoxycholic acid 50 mg/kg oral twice per day for 3.5 days, N=8, mean±standard error
Source text: as §1, §2

[7] = tested on: rats fed cholesterol food; experiment: Blood cholesterol lowering effect in rats fed cholesterol food; assay type: in vivo, rat; settings: 0.3 mg/kg per administration, oral, twice per day; SD (IGS) male rats; serum 3 hours after final administration
Procedure: In the present Test Example, a blood cholesterol lowering effect on rats fed cholesterol food was evaluated according to the method described in J. Lipid Res., 1995, 36, 1098-1105.
That is, the food containing 0.4% cholesterol and 0.5% bile acid was given to SD (IGS) strain male rats at 7 to 9 weeks of age for 5 days in advance of the test date, to increase blood cholesterol levels. The rats in which the blood cholesterol level had been obviously elevated from the level before loading the cholesterol food were selected as the subjects in the test. Colestimide (brand name: Cholebine 70% granules, supplied from Mitsubishi Tokyo Pharmaceutical Inc.) which is an anion exchange resin drug was suspended in distilled water, and the test compound was dissolved or suspended in distilled water. They were orally administered forcibly twice per day everyday from the starting date (each n=8). The blood was collected from jugular vein 3 hours after the drug administration on the final day of the experiment, and the cholesterol level in serum was measured to examine the effect of the test compound. As a control, another group (n=8) was merely fed cholesterol food, to which distilled water (1 mL/kg) was administered and the same procedure was applied. The total cholesterol value and the HDL cholesterol value were measured using commercially available kits. The value obtained by subtracting the HDL cholesterol value from the total cholesterol value was regarded as an LDL+VLDL cholesterol value.

[8] = 0.1 mg/kg oral, surfactant HCO-60 0.1%, cholic acid 200 mg/kg, portal vein blood 2 hours after administration
[9] = 0.1 mg/kg oral, surfactant Tween 20 0.05%, cholic acid 200 mg/kg, portal vein blood 2 hours after administration
[10] = 0.1 mg/kg oral with cholic acid 200 mg/kg, portal vein serum total bile acid 2 hours after, control = 100%, surfactant HCO-60 (##)

Compound	pIC50 ([2]; [3H]-taurocholate 8 μM uptake)	pIC50 ([3]; [3H]-taurocholate 8 μM uptake)	CELL TOXICITY AGAINST Caco2 10 μM [4] [%]	CELL TOXICITY AGAINST Caco2 30 μM [4] [%]	also measured
CCCCC1(CCCC)CS(=O)(=O)c2ccc(N(C)C)cc2C(c2cccc(NC(=S)CCCCC[N+]34CCC(c5ccccc5)(CC3)CC4)c2)N1.[Br-] (stereo not drawn) [EXAMPLE 3853]	7.55	8.05	<1	<1	BILE ACID REDUCTION RATE (%) IN RAT MODEL WITH CHOLIC ACID LOADING [1, 8]: 36%; CELL TOXICITY AGAINST Caco2 3 μM [4]: <1%
C[C@H](CCC(=O)O)[C@H]1CC[C@H]2[C@@H]3[C@@H](O)C[C@@H]4C[C@H](O)CC[C@]4(C)[C@H]3CC[C@]12C [Comparative Example 2, ursodeoxycholic acid, reference compound]					BILE ACID REDUCTION RATE (%) IN RAT MODEL WITH CHOLIC ACID LOADING [1, 9]: 3%; ALT ([5]; control group 200 ± 81): 98 ± 25 IU/L; AST ([5]; control group 400 ± 160): 256 ± 64 IU/L; ALP ([5]; control group 1120 ± 410): 785 ± 120 IU/L; ALT ([6]; control group 82 ± 17): 62 ± 9 IU/L; AST ([6]; control group 157 ± 35): 109 ± 11 IU/L; ALP ([6]; control group 593 ± 77): 453 ± 58 IU/L
CCCCC1(CCCC)CS(=O)(=O)c2ccc(N(C)C)cc2C(c2cccc(NC(=S)Nc3ccc(C[N+]45CCC(c6ccccc6)(CC4)CC5)c(C)c3)c2)N1.[Br-] (stereo not drawn) [EXAMPLE P341]			<1	<1	LDL + VLDL REDUCTION RATE (%) IN CHOLESTEROL FED RAT MODEL (THERAPEUTIC MODEL) [7]: 33%; BILE ACID REDUCTION RATE (%) IN RAT MODEL WITH CHOLIC ACID LOADING [1, 10]: 32%; pIC50 ([2]; [3H]-taurocholate 8 μM): 7.66; pIC50 ([3]; [3H]-taurocholate 8 μM): 8.37
CCCCC1(CCCC)CS(=O)(=O)c2ccc(N(C)C)cc2C(c2cccc(NC(=S)Nc3ccc(C[N+]45CCC(c6ccccc6)(CC4)CC5)cc3Br)c2)N1.[Br-] (stereo not drawn) [EXAMPLE P346]	7.72	8.22	<1	<1	
CCCCC1(CCCC)CS(=O)(=O)c2ccc(N(C)C)cc2C(c2cccc(NC(=S)Nc3ccc(C[N+]45CCC(c6ccccc6)(CC4)CC5)c(F)c3)c2)N1.[Br-] (stereo not drawn) [EXAMPLE P343]	7.80	8.26	<1	<1	
CCCCC1(CCCC)CS(=O)(=O)c2ccc(N(C)C)cc2C(c2cccc(NC(=S)CCCCCCC[N+]34CCC(CC3)CC4)c2)N1.[Br-] (stereo not drawn) [EXAMPLE 3932]	7.44	8.05			BILE ACID REDUCTION RATE (%) IN RAT MODEL WITH CHOLIC ACID LOADING [1, 9]: 30%
CCCCC1(CCCC)CS(=O)(=O)c2ccc(N(C)C)cc2C(c2cccc(NC(=S)Nc3ccc(C[N+]45CCC(CC4)CC5)cc3)c2)N1.[Br-] (racemic) [EXAMPLE 3695]	7.43	8.30	<1	<1	BILE ACID REDUCTION RATE (%) IN RAT MODEL WITH CHOLIC ACID LOADING [1, 8]: 23%; CELL TOXICITY AGAINST Caco2 3 μM [4]: <1%
CCCCC1(CCCC)CS(=O)(=O)c2ccc(N(C)C)cc2C(c2cccc(NC(=S)Nc3ccc(C[N+]45CCC(c6ccccc6)(CC4)CC5)cc3F)c2)N1.[Br-] (stereo not drawn) [EXAMPLE P342]	7.82	8.32	<1	<1	LDL + VLDL REDUCTION RATE (%) IN CHOLESTEROL FED RAT MODEL (THERAPEUTIC MODEL) [7]: 46%; BILE ACID REDUCTION RATE (%) IN RAT MODEL WITH CHOLIC ACID LOADING [1, 10]: 39%
